The values below come from a melting point compilation (Tetko et al.; mined from patent text by program, amines drawn as free bases though some values may be those of a salt).

With `CCCCOC(=O)CNC(=O)c1ncc(C(=O)OCCCC)cc1OC`, the melting point was in the range of 80 to 81 °C.
The same measure for `N#Cc1ccc(C(=O)NCCCCn2cnc3c(N)nc4ccccc4c32)cc1`: 223 to 225 °C; for `CCN1c2ncc(C#Cc3cccnc3)cc2C(=O)N(C)c2cccnc21`: 178 to 180 °C.
The same measure for `CN1CCN(C(=O)CC2CN=C(c3cc4cccc(N(C)S(=O)(=O)c5cccs5)c4[nH]3)S2)CC1` (stereo not drawn): 151 to 153 °C; for `CN(CCCNC(=O)c1ccc(OC(F)(F)F)cc1)CCCNC(=O)c1ccc(OC(F)(F)F)cc1`: 110 to 111 °C; for `NC(=O)/C=C1\CC(O)c2ccc(F)cc21` (stereo not drawn): 166 to 168 °C.
`Cn1c(-c2ccccc2)nc(CN2CCN(c3ccc(O)cc3)CC2)cc1=O` returned a melting point of 206 to 207 °C.
`COC(=O)C(C)(C)OCc1cc(-c2ccc(Cl)s2)no1` registered a melting point of 128 to 130 °C.
`COc1nc2c(O)cccc2n1C` yielded a melting point of 226 to 229 °C.
The figure for `O=C(O)c1ccccc1C=Cc1cccc(Br)c1` is 145 to 150 °C; for `CCCCCCCCCCCCCCCCCC(=O)Nc1ccn(C2OC(CO)C(O)C2O)c(=O)n1` (stereo not drawn) it is 147 to 151 °C; for `O=C(O)COCc1cc2cc(C(F)(F)F)ccc2n1S(=O)(=O)c1ccccc1` it is 158 to 160 °C.
For `CC(C)Cn1cnc2c(N)nc3ccc(CCCN4CCCC4=O)cc3c21`, the melting point was in the range of 174 to 175 °C.
Regarding `C=CC(c1ccccc1)c1c(C)c(OC(C)=O)c(C)c(C)c1O` (stereo not drawn), the melting point fell in the range of 136 to 138 °C.
The figure for `COc1ccc(CC=[N+]([O-])C(C)(C)C)cc1` is 90 to 91 °C; for `Cc1nnc(-c2ccc3occ(-c4ccc(C(=O)O)c(F)c4)c3c2)o1` it is 282 to 283 °C; for `COC(=O)COc1ccc(OC)cc1C(=O)OC` it is 66 to 68.5 °C.
As to `COc1cc(COc2nn(CCO)cc2C=O)ccc1OCc1nc(-c2ccco2)oc1C`, the melting point was in the range of 149 to 150 °C.
The figure for `CC(C)C1CC1(O)C(=O)O` (stereo not drawn) is 135 to 138 °C.
Regarding `CCOC(=O)COCC(=O)c1ccccc1`, the melting point was in the range of 33 to 35 °C.
The figure for `Cc1ccccc1Cc1ccc(Cl)nn1` is 73.5 °C; for `CN1CCN(c2cc3c(c(N)c2F)c(=O)c(C(=O)O)cn3C2CC2)CC1` it is 216 to 218 °C; for `O=C(O)CC[C@H]1O[C@@H](c2ccccc2)c2ccccc2N(Cc2ccccc2)C1=O` (relative stereo) it is 112 to 114 °C.
In the case of `CC(=O)c1ccccc1Cc1ccccc1`, the melting point was in the range of 42 to 43 °C.
Compound `CCCCNC(=O)CCC(=NNC(N)=S)c1ccccc1` showed a melting point of 64 to 68 °C.
For the compound `CCCOc1ccccc1C(=O)Nc1cc(SC)ccc1C(N)=O`, the melting point was in the range of 178 to 181 °C.
`COc1ccc2[nH]c3c(c2c1)C[C@@]1(C)C(=O)N(CCBr)C(=O)N1[C@@H]3c1cccc(O)c1` (racemic) gave a melting point of 299 to 302 °C.
Compound `CCOC(=O)c1c(-c2ccccc2)nc(Cl)n1C` yielded a melting point of 54 to 55 °C.
The figure for `CCCCCCSc1nnc(N)s1` is 113 to 115 °C.
For `CC(C)OC(=O)N(O)CCN1CCCCC1`, the melting point fell in the range of 78 to 79 °C.
The same measure for `O=C(NC(CS)Cc1ccccc1)N1CCN(c2ccccc2)CC1` (single isomer, unassigned; (+)): 122 °C; for `CCCCOC(=O)[C@H]1CN(c2ccc(N3CCSCC3)cc2)C(=O)O1`: 95.5 to 98 °C; for `COc1cccc2sc(NN)nc12`: 215 to 220 °C.
The figure for `Cc1[nH]cc2c(=O)n(-c3ccc(Cl)cc3)nc-2c1-c1cccc(NS(C)(=O)=O)c1` is 332 to 341 °C.
For the compound `COc1cc(C2CCN(C)CC2)ccc1Nc1ncc2ccc(-c3cccc(S(=O)(=O)NC(C)(C)C)c3)n2n1`, the melting point fell in the range of 189 to 198 °C.
For the compound `CNC(=O)C1CCN(Cc2cnc3cc(NC(=O)c4ccc(-c5ccc(F)cc5)cc4)c(C)cc3c2)CC1`, the melting point was determined as 257 °C.
The compound `O=C(O)[C@H](CO)NC(=O)[C@@H]1CS[C@H](c2ccccc2O)N1C(=O)CCS` registered a melting point of 140 to 145 °C.
`CNC(=O)c1oc(C(C)(C)C)cc1NC(=O)Nc1ccc(F)cc1` came in with a melting point of 109 to 111 °C.
The figure for `COc1ccc([C@H](Sc2cc(Oc3ccccc3)ccc2N)[C@@H](O)C(=O)O)cc1` is 151 to 152 °C.
The same measure for `CC(C)(C)OC(=O)N1C[C@@H]2[C@H](C1)C(F)(F)CCC2(c1ccccc1)c1ccccc1` (racemic): 162 °C; for `COc1cc(C(=O)NS(=O)(=O)c2ccccc2C)ccc1Cc1cccc2ccc(CCCC(=O)N3CCOCC3)cc12`: 100 to 102 °C.
Turning to `CCOC(=O)Cc1ncn(C(c2ccccc2)(c2ccccc2)c2ccccc2)n1`, the melting point fell in the range of 117 to 119 °C.
The compound `Cn1c(C(F)(F)F)cc(=O)n(-c2ccc3snc(C(C)(C)C(N)=O)c3c2)c1=O` showed a melting point of 192 to 196 °C.
The same measure for `COC(=O)[C@H]1[C@@H](NC(=O)COc2ccccc2)C(=O)N1Cc1ccc(OC)cc1OC` (relative stereo): 116 °C; for `CCc1ccc2c(c1)OC(C(F)(F)F)C(C(=O)O)=C2` (stereo not drawn): 167 to 169 °C; for `CCCCCCc1cc2c(s1)NC(=O)CN=C2c1ccccc1Cl`: 141 to 143 °C.
The same measure for `CCOC(=O)COc1ccc2cc(-c3cc4ccccc4s3)ccc2c1Cl`: 187 to 188 °C; for `CCCN(CCc1ccccc1)CCc1cccc2[nH]c(=S)[nH]c12`: 198 to 201 °C.
The figure for `CCCc1nc2ccc(NS(C)(=O)=O)cc2n1Cc1ccccc1Cl` is 191 to 193 °C; for `Cc1ccc(Sc2nc(Cl)c(C#N)cc2F)cc1` it is 124 to 125 °C; for `COc1ccc(C(=O)N2CCCCC2)c(NC(=O)N[C@@H](Cc2ccc(NC(=O)c3c(Cl)cccc3Cl)cc2)C(=O)O)c1` it is 176 °C.
Regarding `COc1ccccc1Nc1ccc2c(c1)OCc1cc(N)ccc1C2=O`, the melting point amounted to 68.4 °C.
The same measure for `O=C(O)Cc1ccsc1Cc1nc2c(F)c(F)cc(F)c2s1`: 142 to 144 °C.
The figure for `O=C(O)C(=O)c1ccc(OCCOc2ccc(-c3ccccc3)cc2)cc1` is 179 to 180 °C.
`CCOc1c(C(=O)O)oc2c3ccccc3n(-c3ccccc3)c12` returned a melting point of 146 to 147 °C.
In the case of `C=CCCn1c(=O)c2c(ncn2CCC)n(C)c1=O`, the melting point came to 48 °C.
The same measure for `COC(=O)/C(=C/C=C/c1cc2cc(Cl)c(Cl)cc2[nH]1)OC`: 203 to 204 °C.
For `CCOC(=O)c1ncoc1-c1cnc(Cl)c(Cl)c1`, the melting point lay in the range of 95 to 98 °C.
The same measure for `N#CC1=CCC(c2ccccc2)c2ccccc21` (stereo not drawn): 66 to 67 °C.
The same measure for `CN(Cc1ccc(F)cc1)C(=O)c1cnc2c([N+](=O)[O-])cccc2c1Cl`: 135 to 137 °C; for `O=C(CNS(=O)(=O)c1ccc2ccccc2c1)NCC(NC(=O)C1CCN(c2ccncc2)CC1)C(=O)C1CCCCN1` (stereo not drawn): 200 to 202 °C; for `Cc1nc(N2C[C@@H](C)N(Cc3cc(F)cc(F)c3)C2=O)sc1C(=O)NCc1ccccn1`: 147 to 148 °C.
As to `Nc1nc(COCc2ccccc2)nc2nccnc12`, the melting point is 112 to 114 °C.
The same measure for `CC1=C(C(=O)c2ccccc2F)C(=O)C2C=CC=CC2C1=O` (stereo not drawn): 157 to 158 °C; for `CC(=O)Oc1ccc2c3c(ccc2c1)C1CC=CC1(C)CC3` (stereo not drawn): 95 to 96 °C; for `COc1cc(Nc2c(C#N)cnc3cc(-c4cccc(CN5CCOCC5)c4)sc23)c(Cl)cc1Cl`: 205 to 207 °C.
The figure for `CSc1ccc(Cn2c(C)c(CC(=O)O)c3cc(OCc4nc5ccccc5s4)ccc32)cc1` is 186 to 187 °C; for `CC1CCCCN1CCCNC(=O)c1ccccc1C(c1ccc(O)cc1)c1ccc(O)cc1` (stereo not drawn) it is 118 to 120 °C.
The figure for `CCc1ccc(NC(=O)Nc2cc(C(C)(C)C)sc2C(=O)NC)cc1` is 101 to 104 °C.
Regarding `CC(C)(CO)Nc1nc(SCc2cccc(Oc3ccccc3)c2)nc2nc(N)sc12`, the melting point was in the range of 126 to 130 °C.
The same measure for `COC(=O)Cc1ccc2c(c1)C(=O)c1sccc1CO2`: 80 to 81 °C; for `COc1ccc(C(=O)c2ccc(CBr)cc2)cc1`: 76 to 78 °C.
`S=C=Nc1ccc2oc(-c3sccc3CN3CCOCC3)nc2c1` displayed a melting point of 117 to 118 °C.
In turn, `Clc1ccc2nc(NC3=NCCN3)[nH]c2c1` showed a melting point of 241 to 242 °C.
Compound `CC12C=CC(C)(O1)C(Br)C(=O)C2Br` (stereo not drawn) yielded a melting point of 115 to 120 °C.
On to `COc1cc2c(cc1OC)CCC(N(Cc1ccccc1)C(=O)c1ccc(C)cc1)=C2`, for which the melting point lay within 183 to 185 °C.
The figure for `COc1ccc(NC(=O)CN2C(=O)c3ccccc3C2=O)c(OC)c1COc1cccc2ccc(C)nc12` is 229 to 231 °C; for `COc1ccc2c(C(=S)N(C)CC(N)=O)c(F)ccc2c1C(F)(F)F` it is 222 to 224 °C; for `Cc1c(CC(=O)OCCO[N+](=O)[O-])cc(-c2ccc(S(C)(=O)=O)cc2)n1-c1ccc(F)cc1` it is 110 to 112 °C.
For `OCc1c(F)ccc(-c2ccc3nc(-c4ccc(Cl)cc4)cn3c2)c1F`, the melting point was 214 to 216 °C.
In the case of `CC(=O)Nc1n[nH]c2cc(Cl)ccc12`, the melting point came out at 240 °C.
The same measure for `Oc1ccc(-c2nnc(CCCCCCc3ccccc3)o2)cc1`: 125 to 129 °C; for `COC(=O)c1ccc(C(O)c2cc3cc(Cl)cnc3n2S(=O)(=O)c2ccc(C(C)C)cc2)cc1` (stereo not drawn): 77 °C; for `NCCCn1nc2c3c(c(Cl)ccc31)C(=O)c1c(OCc3ccccc3)ccc(OCc3ccccc3)c1-2`: 180 to 184 °C.
The figure for `CCCCCCCCCCCCCCCC(=O)NCCCSc1ccncc1` is 84 to 85 °C; for `CNc1nc(C(=O)O)ccc1C(=O)OC` it is 152 to 153 °C.
For `N#Cc1cc(O)cc2nc(-c3ccc(O)cc3)oc12`, the melting point was 180 to 183 °C.
The figure for `Cc1cc2c3c(ccc2cc1C#N)OC(=O)C3(C)C` is 215 to 217 °C.

What is called melting point is the temperature of the solid-liquid transition.
